15 compounds from ChEMBL document CHEMBL3580564, “Semisynthetic Studies on and Biological Evaluation of N-Methyllaurotetanine Analogues as Ligands for 5-HT Receptors” (J Nat Prod, 2015) can be followed below.

Assay [1] has as its target 5-hydroxytryptamine receptor 7 (Homo sapiens, UniProt P34969). The assay can be described thus: Displacement of [3H]LSD from human recombinant 5-HT7 receptor expressed in HEK cell membranes by radioligand binding assay. More on the design: species or system HEK293. (In general: Displacement assays read how much labelled ligand stays bound in the presence of the test substance.)

The target of assay [2] is 5-hydroxytryptamine receptor 2A (Homo sapiens, UniProt P28223). Description: Displacement of [3H]ketanserin from human recombinant 5-HT2A receptor expressed in HEKT cell membranes by radioligand binding assay. Type of assay: cell-based.
For assay [3], the species on record is Homo sapiens. The assay can be described thus: Selectivity index, ratio of Ki for human recombinant 5-HT1A receptor to Ki for human recombinant 5-HT7 receptor.
Assay [4] deals with T1, 5-hydroxytryptamine receptor 1A (Homo sapiens, UniProt P08908).
T1 sequence (P08908 whole entry): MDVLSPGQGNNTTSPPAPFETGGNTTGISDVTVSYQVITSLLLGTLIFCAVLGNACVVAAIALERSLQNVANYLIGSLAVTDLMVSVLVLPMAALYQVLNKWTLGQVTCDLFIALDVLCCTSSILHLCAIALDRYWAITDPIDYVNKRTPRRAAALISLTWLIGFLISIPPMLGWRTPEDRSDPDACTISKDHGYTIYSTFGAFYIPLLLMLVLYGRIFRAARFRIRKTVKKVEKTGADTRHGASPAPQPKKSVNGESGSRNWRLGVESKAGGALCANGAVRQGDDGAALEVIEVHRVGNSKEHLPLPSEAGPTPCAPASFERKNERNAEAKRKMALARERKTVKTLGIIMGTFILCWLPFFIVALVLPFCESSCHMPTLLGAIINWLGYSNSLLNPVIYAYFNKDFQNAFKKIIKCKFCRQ
Description: Displacement of [3H]Way100635 from human recombinant 5-HT1A receptor expressed in CHO cell membranes by radioligand binding assay.

The species entered for assay [5] is Homo sapiens. Description: Selectivity index, ratio of Ki for human recombinant 5-HT2A receptor to Ki for human recombinant 5-HT7 receptor.
Assay [6] has as its target T2, 5-hydroxytryptamine receptor 1A (Homo sapiens) (UniProt P08908).
T2 sequence (whole entry): T1 sequence (P08908 whole entry)
The assay can be described thus: Potency index, ratio of Ki for N-Methyllaurotetanine to Ki for test compound against human recombinant 5-HT1A receptor expressed in CHO cell membranes by radioligand binding assay.

As usually defined, the Ki is the equilibrium dissociation constant of an inhibitor or competing ligand from its target.

Sequence of 5-hydroxytryptamine receptor 2A (P28223 whole entry): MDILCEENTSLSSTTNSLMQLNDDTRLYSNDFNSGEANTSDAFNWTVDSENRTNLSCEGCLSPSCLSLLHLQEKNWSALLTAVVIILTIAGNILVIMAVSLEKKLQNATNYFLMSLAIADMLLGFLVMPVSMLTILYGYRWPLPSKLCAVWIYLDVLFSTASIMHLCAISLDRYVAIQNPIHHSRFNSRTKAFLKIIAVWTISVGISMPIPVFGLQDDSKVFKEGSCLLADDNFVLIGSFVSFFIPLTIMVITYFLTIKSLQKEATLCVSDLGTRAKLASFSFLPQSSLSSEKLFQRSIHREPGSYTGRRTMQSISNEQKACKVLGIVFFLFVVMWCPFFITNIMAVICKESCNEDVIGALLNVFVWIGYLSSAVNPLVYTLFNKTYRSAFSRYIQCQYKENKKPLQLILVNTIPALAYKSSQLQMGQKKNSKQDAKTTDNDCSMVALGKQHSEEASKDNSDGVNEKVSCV
Sequence of 5-hydroxytryptamine receptor 7 (P34969 whole entry): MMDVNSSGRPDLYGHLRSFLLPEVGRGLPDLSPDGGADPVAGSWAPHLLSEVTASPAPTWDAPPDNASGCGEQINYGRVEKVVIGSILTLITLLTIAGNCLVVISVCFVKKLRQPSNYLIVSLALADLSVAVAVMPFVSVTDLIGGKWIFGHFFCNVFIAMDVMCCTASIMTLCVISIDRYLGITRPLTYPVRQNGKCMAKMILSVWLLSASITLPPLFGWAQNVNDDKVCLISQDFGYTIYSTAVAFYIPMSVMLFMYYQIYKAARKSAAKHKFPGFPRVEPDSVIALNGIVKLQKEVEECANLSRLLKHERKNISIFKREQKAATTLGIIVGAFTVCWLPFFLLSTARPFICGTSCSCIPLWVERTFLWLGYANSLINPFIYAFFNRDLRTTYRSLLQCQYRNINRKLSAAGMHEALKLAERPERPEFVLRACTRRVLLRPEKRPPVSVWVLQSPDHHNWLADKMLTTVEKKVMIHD

As to `CCCCCCOc1cc2c(cc1OC)-c1c(OC)c(OC)cc3c1[C@H](C2)N(C)CC3`, the Ki in assay [1] is 58 nM; in assay [2], 570 nM; in assay [4], 273 nM. Moreover, the Ratio Ki was 5 in assay [3] and 10 in assay [5].
For `COc1cc2c(cc1OC)-c1c(OC)c(OC)cc3c1[C@H](C2)N(C)CC3` [GLAUCINE], the Ki in assay [1] is 43 nM; in assay [2] it was 966 nM; in assay [4], 171 nM. Also, the Ratio Ki in assay [3] was found to be 4; in assay [5] it was 22.
For `COc1cc2c(cc1OCC1CC1)C[C@H]1c3c(cc(OC)c(OC)c3-2)CCN1C`, the values for the Ki in assay [1], in assay [2] and in assay [4] were 22 nM, 582 nM and 224 nM, respectively. Further, in assay [3], the Ratio Ki was 10.
With `CCCCOc1cc2c(cc1OC)-c1c(OC)c(OC)cc3c1[C@H](C2)N(C)CC3`, the Ki in assay [1] was 15 nM; in assay [2], 268 nM; in assay [4], 153 nM. For the same compound, the results for the Ratio Ki in assay [3] and in assay [5] were 10 and 18, respectively.
For `C=CCOc1cc2c(cc1OC)-c1c(OC)c(OC)cc3c1[C@H](C2)N(C)CC3`, the Ki in assay [1] was determined as 20 nM; in assay [2], 383 nM; in assay [4], 361 nM. Moreover, the Ratio Ki in assay [3] and in assay [5] was 18 throughout.
Regarding `CCC(C)Oc1cc2c(cc1OC)-c1c(OC)c(OC)cc3c1[C@H](C2)N(C)CC3` (stereo not given in full), the figures for the Ki in assay [1], in assay [2] and in assay [4] were 34 nM, 377 nM and 244 nM, respectively. For the same compound, the values for the Ratio Ki in assay [3], in assay [5] and in assay [6] were 7, 7 and < 3, respectively.
Take `COc1cc2c(cc1OC(C)C)C[C@H]1c3c(cc(OC)c(OC)c3-2)CCN1C`: the Ki stood at 28 nM in assay [1], 750 nM in assay [2] and 563 nM in assay [4]. Besides, the results for the Ratio Ki in assay [3] and in assay [5] were 20 and 27, respectively.
Take `COc1cc2c(cc1OCc1ccc(Br)cc1)C[C@H]1c3c(cc(OC)c(OC)c3-2)CCN1C`: the Ki in assay [1] turned out to be 54 nM; in assay [2], 418 nM; in assay [4], 102 nM. The Ratio Ki was determined as 2 in assay [3], 8 in assay [5] and 3 in assay [6].
As to `COc1cc2c(cc1OCc1ccccc1)C[C@H]1c3c(cc(OC)c(OC)c3-2)CCN1C`, the results for the Ki in assay [1], in assay [2] and in assay [4] were 23 nM, 216 nM and 92 nM, respectively. For the same compound, the Ratio Ki stood at 4 in assay [3], 9 in assay [5] and 3 in assay [6].
`CCCCCOc1cc2c(cc1OC)-c1c(OC)c(OC)cc3c1[C@H](C2)N(C)CC3`: the figures for the Ki in assay [1], in assay [2] and in assay [4] were 24 nM, 239 nM and 179 nM, respectively. Further, the Ratio Ki amounted to 7 in assay [3] and 10 in assay [5].
With `COc1cc2c(cc1OC1CCCCC1)C[C@H]1c3c(cc(OC)c(OC)c3-2)CCN1C`, the Ki was 50 nM in assay [1], 570 nM in assay [2] and 163 nM in assay [4]. Besides, the Ratio Ki is 3 in assay [3], 11 in assay [5] and < 3 in assay [6].
Take `CCOc1cc2c(cc1OC)-c1c(OC)c(OC)cc3c1[C@H](C2)N(C)CC3`: the Ki in assay [1] came out at 69 nM; in assay [2], 818 nM; in assay [4] it was 506 nM. Also, the Ratio Ki in assay [3] is 7; in assay [5] it was 12.
As for `CCCCC(C)Oc1cc2c(cc1OC)-c1c(OC)c(OC)cc3c1[C@H](C2)N(C)CC3` (stereo not given in full), the values for the Ki in assay [1], in assay [2] and in assay [4] were 38 nM, 446 nM and 152 nM, respectively. For the same compound, the Ratio Ki in assay [3] was 4; in assay [5], 12; in assay [6] it was < 3.
As for `COc1cc2c(cc1OCCF)C[C@H]1c3c(cc(OC)c(OC)c3-2)CCN1C`, the Ki was 52 nM in assay [1], 1160 nM in assay [2] and 845 nM in assay [4]. Besides, the results for the Ratio Ki in assay [3] and in assay [5] were 16 and 22, respectively.
On to `CCCC(C)Oc1cc2c(cc1OC)-c1c(OC)c(OC)cc3c1[C@H](C2)N(C)CC3` (stereo not given in full), for which the Ki in assay [1] worked out at 24 nM; in assay [2] it was 244 nM; in assay [4] it was 117 nM. The Ratio Ki in assay [3] is 5; in assay [5], 5; in assay [6] it was < 3.
